Measurements as given in patent publication US20240182526A1, “COMPOSITIONS AND METHODS FOR MODULTING INFLAMMATORY AND DEGENERATIVE DISORDER” (University of Southern California, priority 2021, published 2024).
“Also recorded” adds a separate entry of the source.

Key:
gp130 pY814 = molecular target: T1, gp130 pY814 (Sus scrofa, UniProt A0A4X1SIN4); assay: Western blot of gp130 pY814 in OSM-stimulated pig articular chondrocytes; format: cell-based; settings: with OSM, 4 and 24 hours
T1 construct: endogenous in cells; host or cells: pig articular chondrocytes (Yucatan minipig)
T1 sequence (A0A4X1SIN4 23-917): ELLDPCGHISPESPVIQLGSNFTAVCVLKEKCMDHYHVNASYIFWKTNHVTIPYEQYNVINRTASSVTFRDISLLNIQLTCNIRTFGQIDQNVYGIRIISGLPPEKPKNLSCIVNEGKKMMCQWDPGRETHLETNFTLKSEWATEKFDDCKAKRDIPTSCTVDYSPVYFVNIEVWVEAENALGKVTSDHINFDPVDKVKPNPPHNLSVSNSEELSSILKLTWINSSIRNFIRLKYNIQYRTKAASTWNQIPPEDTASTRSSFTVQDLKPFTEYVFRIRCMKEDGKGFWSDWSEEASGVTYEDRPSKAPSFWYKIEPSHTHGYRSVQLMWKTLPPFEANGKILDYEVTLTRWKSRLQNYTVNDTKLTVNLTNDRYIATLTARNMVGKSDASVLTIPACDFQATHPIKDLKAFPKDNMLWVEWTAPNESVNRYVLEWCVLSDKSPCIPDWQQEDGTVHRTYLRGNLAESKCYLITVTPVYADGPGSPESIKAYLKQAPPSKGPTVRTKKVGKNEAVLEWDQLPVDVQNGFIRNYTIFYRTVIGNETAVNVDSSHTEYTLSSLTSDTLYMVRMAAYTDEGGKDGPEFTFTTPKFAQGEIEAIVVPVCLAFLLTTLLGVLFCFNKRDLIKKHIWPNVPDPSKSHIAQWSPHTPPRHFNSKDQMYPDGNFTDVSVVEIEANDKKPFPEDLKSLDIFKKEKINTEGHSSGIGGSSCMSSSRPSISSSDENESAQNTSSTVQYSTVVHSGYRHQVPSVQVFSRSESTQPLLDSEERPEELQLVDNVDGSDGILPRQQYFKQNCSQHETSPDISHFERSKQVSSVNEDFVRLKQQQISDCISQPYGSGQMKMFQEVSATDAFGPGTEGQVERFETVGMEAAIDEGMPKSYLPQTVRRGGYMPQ
Description: (§1) For standard western blot, treated and non-treated cells were lysed in RIPA Lysis and Extraction Buffer (Pierce, Rockford, IL) containing protease inhibitors (Pierce) followed by sonication with a 15-second pulse at a power output of 2 using the VirSonic 100 (SP Industries Company, Warminster, PA). Protein concentrations were determined by BCA protein assay (Pierce). Proteins were resolved with SDS-PAGE utilizing 4-15% Mini-PROTEAN TGX Precast Gels and transferred to Trans-Blot Turbo Transfer Packs with a 0.2-μm pore-size nitrocellulose membrane. The SDS-PAGE running buffer, 4-15% Mini-PROTEAN TGX Precast Gels, Trans-Blot Turbo Transfer Packs with a 0.2-μm pore-size nitrocellulose membrane was purchased from Biorad (Hercules, CA). Nitrocellulose membranes were blocked in 5% nonfat milk in 0.05% (v/v) Tween 20 (PBST) (Corning, Manassas, VA). Membranes were then incubated with primary antibodies p-gp130 Y814 (Evseenko lab, AbClonal), p-AKT (cat #4060, Cell Signaling), p-ERK 1/2 (cat #9106, Cell Signaling), p-Y416-SRC (cat #1246F, Novus Biologicals), p-gp130 (cat #1453R, Bioss USA) and p-NFκBp65 (cat #8242, Cell Signaling), and/or YAP1 (cat #4912, Cell Signaling). Histone H3 (cat #9515, Cell Signaling) was used as loading control. […] Quantification of blots was performed using ImageJ 1.44 followed by Prism9 for analysis.

[1] = molecular target: T2, heterodimerization of gp130 with IL-6 family of cytokines' alpha receptors (Homo sapiens, UniProt P40189); assay: Receptor-competition assay (co-IP of gp130 FLAG with alpha receptors); format: cell-based; settings: articular chondrocytes transfected with gp130 FLAG, different doses, 4 and 24 hours
T2 construct: A plasmid encoding full-length gp130 (WTgp130; InVivoGen) was used to create the 5 mutants; expressed in transfected cells
T2 sequence (P40189 23-918, one chain of several): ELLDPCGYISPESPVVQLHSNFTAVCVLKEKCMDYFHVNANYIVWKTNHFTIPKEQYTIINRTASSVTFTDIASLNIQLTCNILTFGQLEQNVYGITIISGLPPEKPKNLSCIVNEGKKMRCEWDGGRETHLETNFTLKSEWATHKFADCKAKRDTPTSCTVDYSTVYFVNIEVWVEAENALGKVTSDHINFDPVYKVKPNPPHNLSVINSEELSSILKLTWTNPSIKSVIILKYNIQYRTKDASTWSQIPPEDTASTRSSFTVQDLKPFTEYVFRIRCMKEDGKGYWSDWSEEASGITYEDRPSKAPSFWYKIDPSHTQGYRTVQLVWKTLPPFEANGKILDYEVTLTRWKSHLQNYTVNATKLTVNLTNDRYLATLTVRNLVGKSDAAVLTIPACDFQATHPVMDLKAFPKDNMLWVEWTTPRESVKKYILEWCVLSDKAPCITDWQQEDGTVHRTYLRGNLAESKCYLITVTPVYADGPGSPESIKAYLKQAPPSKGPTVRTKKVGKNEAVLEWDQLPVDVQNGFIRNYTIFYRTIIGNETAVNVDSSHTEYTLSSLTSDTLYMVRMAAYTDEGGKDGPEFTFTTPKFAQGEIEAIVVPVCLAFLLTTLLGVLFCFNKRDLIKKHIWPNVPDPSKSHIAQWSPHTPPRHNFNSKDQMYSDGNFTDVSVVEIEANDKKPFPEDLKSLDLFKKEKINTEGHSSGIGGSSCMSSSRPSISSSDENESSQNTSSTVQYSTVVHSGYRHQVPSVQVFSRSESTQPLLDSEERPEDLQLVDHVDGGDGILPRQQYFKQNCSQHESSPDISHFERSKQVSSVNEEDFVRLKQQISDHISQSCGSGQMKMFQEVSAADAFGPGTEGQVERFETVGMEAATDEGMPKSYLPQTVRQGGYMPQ
Description: IP Western, SDS-PAGE and Western blot analysis. For transfections of gp130 wild type (WT) (InVivoGen) and gp130 mutant plasmids (Thermo Scientific), cells were plated 24 h prior to transfection to produce monolayers that were 60% confluent and these were transfected by using Turbo DNAfectin 3000 (cat #G3000, Lambda Biotech) according to the manufacturer's protocol. 72h after transfection, cells were maintained in DMEM (10% FBS, 1% PSA) and were either left untreated or were stimulated with IL-6 (10 ng/mL) and/or OSM (10 ng/mL) for 24 h before cell harvest and protein extraction. For immunoprecipitation assays, cell lysates were incubated with Protein G Agarose (cat #20398, Pierce) and anti-Flag antibody (cat #2368, Cell Signaling) at 4° C. overnight. The immune complexes were sedimented, washed and separated by SDS-PAGE (see below) and further analyzed by Western blot using p-SRC (pY416-SRC) (cat #1246F, Novus Biologicals) or NEMO (cat #18474-1-AP, Proteintech) antibodies and normalized to gp130 (cat #bs-1459R, Bioss) or total SRC (cat #2123, Cell Signaling). For R805 treatment, the immune complexes were sedimented, washed and separated by SDS-PAGE and further analyzed by Western blot using OSMR (cat #ab85575, Abcam), LIFR (Santa cat #515337, Cruz Biotechnology) or p-SRC (pY416-SRC) (Novus Biologicals, cat #1246F). […]

STAT3 = assay: Western blot of STAT3 signaling in osteoarthritic chondrocytes; format: cell-based, human; settings: 4 and 24 hours
Description: as §1

YAP1 = assay: Western blot of YAP1 in LIF-treated pig articular chondrocytes; format: cell-based; settings: 4 and 24 hours
Description: as §1, with “VA).” for “VA). Membranes were then incubated with primary antibodies p-gp130 Y814 (Evseenko lab, AbClonal), p-AKT (cat #4060, Cell Signaling), p-ERK 1/2 (cat #9106, Cell Signaling), p-Y416-SRC (cat #1246F, Novus Biologicals), p-gp130 (cat #1453R, Bioss USA) and p-NFκBp65 (cat #8242, Cell Signaling), and/or YAP1 (cat #4912, Cell Signaling). Histone H3 (cat #9515, Cell Signaling) was used as loading control.”
Experiments were performed to determine whether R805 is inclined to shift the signaling outputs downstream of gp130 promoting differential regulation similar to genetic ablation of Y814. As a readout, protein levels of phosphorylated SRC, MAPK (ERK 1/2) and NF-κB were measured in response to OSM while STAT3 and YAP1 levels were evaluated in response to LIF.

In the case of `Cc1ccc(-c2csc(NC(=O)c3ccccn3)n2)cc1` [Peptide R805], the “OSM-stimulated activation of gp130 Y814 (protein expression of gp130 pY814)” value (gp130 pY814) is reported as “prevents Y814 activation in response to IL-6 cytokines; also recorded: selectively inhibited OSM-stimulated activation of Y814”, the “OSM-stimulated activation of gp130 Y814 (protein expression of gp130 pY814)” value (gp130 pY814; listed as CX-011) is reported as “potent inhibitor of OSM-stimulated activation of gp130 Y814” and the “IL-6 family-induced heterodimerization of gp130 with α-receptors” value [1] is reported as “markedly suppressed; also recorded: inhibits heterodimerization of gp130 with IL-6 family of cytokines' alpha receptors”. The “STAT3 signaling in diseased joint cells” value (STAT3) was “minimally affected STAT3 signaling in a diseased joint” and the “YAP1 downstream of LIF” value (YAP1) was “minimal inhibitory effect”.
